76 molecules from PubChem BioAssay AID2742 (NMMLSC, 2010) can be followed below.

This assay is described as follows: modulators of MEP2-GFP levels in yeast, dose response, S. cerevisiae, flow cytometry GFP, MLPCN hits (AID 2742).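 Also: GFP tag reports level of MEP2 protein as a downstream target of TOR signalling.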 Conditions: S. cerevisiae MEP2-GFP strain, flow cytometry fluorescence, 3 h; at 33 µM (top of the series). In general terms: In flow cytometry, cells or beads pass a laser one at a time.

Structures are written as SMILES. Where “and” joins values, the source holds several entries; their conditions need not be identical. Identical values can stand only once. Calls of active or inactive are those of the source.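 The calls were made as follows: active = fitted half-maximal concentration for changing background-corrected GFP signal at or below a set limit; inactive = the rest.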

Regarding `Cc1nn2c(-c3ccncc3)nnc2c2ccccc12`, the GFP fluorescence (kMESF), higher = increase was 1.97 kMESF (inactive).

Consider `COC(CNC(=O)c1ccc2c3c(onc13)-c1ccccc1C2=O)OC`, for which the GFP fluorescence (kMESF), higher = increase was -0.77 kMESF (inactive).

With `COc1ccc(C(=O)/C=C2/C(=O)Nc3ccccc32)c(OC)c1`, the GFP fluorescence (kMESF), higher = increase is 3.34 kMESF (inactive).

As for `O=C(Oc1c(Cl)cc(Cl)c2cccnc12)c1cccs1`, the GFP fluorescence (kMESF), higher = increase is 3.47 kMESF (inactive).

For the molecule `Cc1cccc(C(=O)NC(=S)NNC(=O)Cc2ccccc2)c1`, the GFP fluorescence (kMESF), higher = increase is 3.56 kMESF (inactive).

As to `Cc1cc(O)c(C(=O)/C=C/c2ccc(Cl)cc2)c(=O)o1`, the GFP fluorescence (kMESF), higher = increase was 4.13 kMESF (inactive).

On to `Cc1ccc(-c2nc(C)sc2CC(=O)Nc2nnc(C)s2)cc1`, for which the GFP fluorescence (kMESF), higher = increase is 1.85 kMESF (inactive).

As for `COc1cccc(/C=N/Nc2ccc([N+](=O)[O-])cn2)c1O`, the GFP fluorescence (kMESF), higher = increase is 3.24 kMESF (inactive).

Consider `CC[C@]1(c2ccccc2OC)ON(c2ccccc2C(F)(F)F)C1=O`, for which the GFP fluorescence (kMESF), higher = increase was 4.31 kMESF (inactive).

`Cc1ccc(-c2nn(C(C)(C)C)c3ncnc(N)c23)cc1`: the GFP fluorescence (kMESF), higher = increase was 6.01 kMESF (inactive).

For `O=C(NC(=S)NNC(=O)[C@H]1C[C@@H]1c1ccccc1)c1cccc(F)c1`, the GFP fluorescence (kMESF), higher = increase is 7.02 kMESF (inactive).

`Oc1c(Br)cc(Br)cc1C=Nc1ccc2c(c1)OCO2`: the GFP fluorescence (kMESF), higher = increase was 5.35 kMESF (inactive).

Turning to `Cc1ccccc1[C@@]1(C)ON(c2ccccc2C(F)(F)F)C1=O`, the GFP fluorescence (kMESF), higher = increase was 3.31 kMESF (inactive).

Regarding `O=C(/C=C/c1ccc(Br)cc1)NC(=S)NNC(=O)c1ccco1`, the GFP fluorescence (kMESF), higher = increase is 3.07 kMESF (inactive).

For `C=C1C(O)[C@@H]2O[C@]3(CC[C@H](/C=C/C(C)[C@@H]4CC(C)=CC5(O[C@H](C[C@@](C)(O)C(=O)O)CCC5O)O4)O3)CC[C@H]2O[C@@H]1C(O)CC(C)[C@H]1OC2(CCCCO2)CCC1C` (stereo partly specified), the GFP fluorescence (kMESF), higher = increase is 1.77 kMESF (inactive).

`O=C(/C=C/c1cccc([N+](=O)[O-])c1)c1ccc([N+](=O)[O-])o1`: the GFP fluorescence (kMESF), higher = increase was 3.51 kMESF (inactive).

For `O=C1CC(c2ccccc2)=NN1c1nc(-c2ccccc2)cs1`, the GFP fluorescence (kMESF), higher = increase was 2.83 kMESF (inactive).

For `CC1=C/C(=N\OS(=O)(=O)c2ccccc2)C(C)=CC1=O`, the GFP fluorescence (kMESF), higher = increase was -2.25 kMESF (inactive).

For `Cc1ccc(NC(=O)CCc2ccccc2)cc1S(=O)(=O)N1CCOCC1`, the GFP fluorescence (kMESF), higher = increase is 1.72 kMESF (inactive).

For the molecule `Cc1cc(=O)n2c3c(sc2n1)C(=O)N(Cc1ccccc1)C3=O`, the GFP fluorescence (kMESF), higher = increase is 2.89 kMESF (inactive).

For the molecule `Cc1cc(=O)oc2cc(Oc3ccc([N+](=O)[O-])cc3C(F)(F)F)ccc12`, the GFP fluorescence (kMESF), higher = increase is 2.42 kMESF (inactive).

As to `COc1ccc(N=Cc2nc(-c3ccccc3)oc2OC(C)=O)cc1`, the GFP fluorescence (kMESF), higher = increase is 3.51 kMESF (inactive).

Consider `O=C1C(Cl)=C(NCCc2ccccc2)C(=O)N1CCc1ccccc1`, for which the GFP fluorescence (kMESF), higher = increase is 2.91 kMESF (inactive).

As to `NC(=O)COc1ccc(C(=O)/C=C2/C(=O)Nc3ccccc32)cc1`, the GFP fluorescence (kMESF), higher = increase is 3.66 kMESF (inactive).

Take `COc1cc(NC(=O)c2ccccc2[N+](=O)[O-])ccc1NC(=O)c1cc2ccccc2o1`: the GFP fluorescence (kMESF), higher = increase was 2.3 kMESF (inactive).

For the molecule `O=C1/C(=C\c2ccc(O)c(O)c2)SC(=S)N1Cc1ccccc1`, the GFP fluorescence (kMESF), higher = increase was -21.1 kMESF (inactive).

For `COc1ccccc1[C@]1(C)ON(c2ccccc2C(F)(F)F)C1=O`, the GFP fluorescence (kMESF), higher = increase is 5.08 kMESF (inactive).

For `CC1=NNC(=O)/C1=C\c1cn(-c2ccccc2)nc1-c1ccccc1`, the GFP fluorescence (kMESF), higher = increase is 3.11 kMESF (inactive).

Turning to `Cc1cccc(OCCN2CSC(=S)N(C)C2)c1`, the GFP fluorescence (kMESF), higher = increase is 3.71 kMESF (inactive).

Turning to `O=C(OCC(=O)N1CCN(C(=O)c2ccco2)CC1)c1cc(-c2ccccc2)nc2ccccc12`, the GFP fluorescence (kMESF), higher = increase was 3.96 kMESF (inactive) and 2.66 kMESF (inactive).

For the molecule `COc1ccc(N2C(=O)C(Cl)=C(Oc3cccc(OC)c3)C2=O)cc1`, the GFP fluorescence (kMESF), higher = increase is 4.18 kMESF (inactive).

Regarding `COc1ccc(C2=CC(=O)N(Nc3ccccc3)C2=O)cc1`, the GFP fluorescence (kMESF), higher = increase was 6.84 kMESF (inactive).

Consider `O=[N+]([O-])c1ccc(N=Nc2c(Cl)cc(O)cc2Cl)cc1`, for which the GFP fluorescence (kMESF), higher = increase was 4.93 kMESF (inactive).

On to `CC(=O)CSc1ncnc2c1cnn2-c1ccccc1`, for which the GFP fluorescence (kMESF), higher = increase is 2.5 kMESF (inactive).

With `COc1ccc(/C=C2\C(=O)ON=C2c2ccccc2)cc1`, the GFP fluorescence (kMESF), higher = increase is 4.38 kMESF (inactive).

Take `Cc1ccc(N=c2ssnc2Cl)cc1`: the GFP fluorescence (kMESF), higher = increase is 4.79 kMESF (inactive).

For `O=C1ON=C(c2ccccc2)/C1=C/c1ccco1`, the GFP fluorescence (kMESF), higher = increase is 4.24 kMESF (inactive).

As for `Oc1ccc(N=Nc2ccccc2)o1`, the GFP fluorescence (kMESF), higher = increase was 4.33 kMESF (inactive).

Turning to `Cc1nn2c(NCc3ccccn3)c3c(nc2c1-c1ccccc1)CCC3`, the GFP fluorescence (kMESF), higher = increase is 2.73 kMESF (inactive).

Regarding `Cc1c(C)c2ccc(Oc3ccc([N+](=O)[O-])cc3C(F)(F)F)c(C)c2oc1=O`, the GFP fluorescence (kMESF), higher = increase was 2 kMESF (inactive).

On to `O=c1c2cc(Cl)ccc2nc(-c2ccc([N+](=O)[O-])cc2)n1O`, for which the GFP fluorescence (kMESF), higher = increase was 4.58 kMESF (inactive).

As to `COc1cc(C=C2C(=O)c3ccccc3C2=O)cc(OC)c1OC`, the GFP fluorescence (kMESF), higher = increase was 2.43 kMESF (inactive).

Regarding `O=C(Nc1nc(-c2ccccn2)cs1)c1cc2ccccc2o1`, the GFP fluorescence (kMESF), higher = increase is 5.47 kMESF (inactive).

As for `COc1ccc(N2C(=O)CC(Sc3ncn[nH]3)C2=O)c(OC)c1` (stereo unspecified), the GFP fluorescence (kMESF), higher = increase was 3.82 kMESF (inactive).

Turning to `Cc1ccsc1/C=C1\C(=O)NC(=S)N(C)C1=O`, the GFP fluorescence (kMESF), higher = increase was 3.66 kMESF (inactive).

For the molecule `Oc1ccc2ccccc2c1N=Nc1nccs1`, the GFP fluorescence (kMESF), higher = increase is 4.97 kMESF (inactive).

For the molecule `O=C(O)/C=C/C(=O)c1ccc2c(c1)CCc1ccccc1-2`, the GFP fluorescence (kMESF), higher = increase was 4.6 kMESF (inactive).

As for `COCCN1C(=O)/C(=C/c2ccc(N3CCCC3)cc2C)SC1=S`, the GFP fluorescence (kMESF), higher = increase was 7.22 kMESF (inactive).

On to `O=C(O)c1ccc(COc2ccccc2C=C2C(=O)c3ccccc3C2=O)cc1`, for which the GFP fluorescence (kMESF), higher = increase was 1.54 kMESF (inactive).

For the molecule `N/C(=N\OC(=O)c1cc(Br)ccc1Cl)c1ccccn1`, the GFP fluorescence (kMESF), higher = increase is 5.31 kMESF (inactive).

Consider `CC(C)Cn1c(=O)c(C(=O)Nc2ccncc2)c(O)c2ccccc21`, for which the GFP fluorescence (kMESF), higher = increase was 3.98 kMESF (inactive).

With `CCN(CC)C(=O)Oc1ccnc2cc(Cl)ccc12`, the GFP fluorescence (kMESF), higher = increase is 11.7 kMESF (inactive).

Consider `Cc1ccc(S(=O)(=O)N2CC(C(=O)O)=CC[C@H]2c2ccc(Cl)cc2)cc1`, for which the GFP fluorescence (kMESF), higher = increase is 3.69 kMESF (inactive).

`C=CCOc1cccc(C(=O)/C=C2/C(=O)Nc3ccccc32)c1`: the GFP fluorescence (kMESF), higher = increase was 3.41 kMESF (inactive).

Consider `CC(Oc1ccc(Cl)cc1)C(=O)NNC(=S)NC(=O)c1ccco1` (stereo unspecified), for which the GFP fluorescence (kMESF), higher = increase is 5.05 kMESF (inactive).

For `Cc1[nH]n(-c2ncc(-c3ccccc3)s2)c(=O)c1C(c1ccc(Cl)cc1)C(C#N)C#N` (stereo unspecified), the GFP fluorescence (kMESF), higher = increase was 4.02 kMESF (inactive).

As for `CCOc1ccc(N2C(=O)C(Cl)=C(Nc3ccccc3O)C2=O)cc1`, the GFP fluorescence (kMESF), higher = increase was 4.31 kMESF (inactive).

`COc1ccc(N2C(=O)/C(=C/c3cccs3)C(=O)NC2=S)cc1`: the GFP fluorescence (kMESF), higher = increase is 4.01 kMESF (inactive).

Consider `Cc1ccc(N=Nc2ccc(O)c3ncccc23)cc1`, for which the GFP fluorescence (kMESF), higher = increase was 3.18 kMESF (inactive).

On to `CCOC(=O)CS(=O)(=O)c1nc(-c2ccccc2)cc(C(F)(F)F)n1`, for which the GFP fluorescence (kMESF), higher = increase was 6.41 kMESF (inactive).

For `ClC(Cl)(c1nnnn1-c1ccccc1)c1nnnn1-c1ccccc1`, the GFP fluorescence (kMESF), higher = increase was 4.4 kMESF (inactive).

Consider `O=C1N(c2ccccc2C(F)(F)F)O[C@]1(c1ccccc1)C1CCCC1`, for which the GFP fluorescence (kMESF), higher = increase is 2.4 kMESF (inactive).

Turning to `CCOC(=O)C1=C(O)c2ccccc2C(=O)/C1=C\c1ccc(C)cc1`, the GFP fluorescence (kMESF), higher = increase is -34.5 kMESF (inactive).

Consider `Cc1ccc(C(=O)Oc2oc(-c3ccccc3)nc2C=Nc2ccc(N(C)C)cc2)cc1`, for which the GFP fluorescence (kMESF), higher = increase was 4.19 kMESF (inactive).

For the molecule `COc1ccccc1N=Cc1nc(-c2ccccc2)oc1OC(C)=O`, the GFP fluorescence (kMESF), higher = increase was 4.52 kMESF (inactive).

Take `Cc1ccc(C(=O)O)cc1N=Cc1cc(Br)cc(Br)c1O`: the GFP fluorescence (kMESF), higher = increase was 5.7 kMESF (inactive).

For the molecule `CC1(c2ccccc2)ON(c2ccccc2C(F)(F)F)C1=O` (stereo unspecified), the GFP fluorescence (kMESF), higher = increase is 4.18 kMESF (inactive).

Turning to `O=[N+]([O-])c1ccc(S(=O)(=O)c2ccccc2)nc1`, the GFP fluorescence (kMESF), higher = increase is 5.25 kMESF (inactive).

On to `O=S(=O)(/N=C(\Sc1ccc(Cl)cc1)c1ccccc1)c1ccccc1`, for which the GFP fluorescence (kMESF), higher = increase was 4.33 kMESF (inactive).

Take `O=C(Oc1ccnc2cc(Cl)ccc12)N1CCOCC1`: the GFP fluorescence (kMESF), higher = increase is 2.97 kMESF (inactive).

As to `CCN1/C(=C/C(C)=C/c2sc3ccccc3[n+]2CC)Sc2ccccc21`, the GFP fluorescence (kMESF), higher = increase was 4.91 kMESF (inactive).

In the case of `O=C(C#Cc1cccc([N+](=O)[O-])c1)c1ccccc1`, the GFP fluorescence (kMESF), higher = increase is 3.98 kMESF (inactive).

In the case of `Oc1c(CN2CCCCC2)cc(Br)c2cccnc12`, the GFP fluorescence (kMESF), higher = increase is 5.16 kMESF (inactive).

`O=C(Nc1nnc(-c2ccc3c(c2)CCCC3)o1)c1ccc(Cl)cc1Cl`: the GFP fluorescence (kMESF), higher = increase is 3.77 kMESF (inactive).

`Oc1c(CN2CCN(c3ccc(F)cc3)CC2)cc(Cl)c2cccnc12`: the GFP fluorescence (kMESF), higher = increase is 10.7 kMESF (inactive).

Regarding `O=C1NC(=O)N(CCc2ccc(F)cc2)C(=O)/C1=C/c1cccs1`, the GFP fluorescence (kMESF), higher = increase was 4.39 kMESF (inactive).
